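Growth conditions: 96-well plates. Treatment: test compound, 48 hours, 5 concentrations. Analysis: linear interpolation between bracketing concentrations; unreached endpoints set to highest concentration. GI50 marks 50% less growth.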 Active and inactive are the calls of the source. Cut-off read from the data, not from the text of the source: active = GI50 up to about 1.1 µM and inactive = higher.
Tests used:
Assay in all cases: inhibition of tumour cell growth, NCI panel, 48 h
[1] = test system: ACHN
[2] = test system: KM12
[3] = test system: SN12C
[4] = test system: Malme-3M
[5] = test system: A549
[6] = test system: DLD-1
[7] = test system: IGROV-1
[8] = test system: SW-620
[9] = test system: COLO 205
[10] = test system: CAKI-1
[11] = test system: SNB-19
[12] = test system: HCT-116
[13] = test system: UACC-257
[14] = test system: SR
[15] = test system: NCI-H522
[16] = test system: LOX IMVI
[17] = test system: RXF 393

SMILES | GI50 [1] | GI50 [2] | GI50 [3] | GI50 [4] | GI50 [5] | GI50 [6] | GI50 [7] | GI50 [8] | GI50 [9] | GI50 [10] | GI50 [11] | GI50 [12] | GI50 [13] | GI50 [14] | GI50 [15] | GI50 [16] | GI50 [17]
COc1ccc2c(c1)[n+]([O-])c(-c1ccccc1Cl)c(N)[n+]2[O-] | 86.1 µM (inactive) | 67.1 µM (inactive) | > 100 µM (inactive) | > 100 µM (inactive) | 94.2 µM (inactive) | > 100 µM (inactive) | 79.1 µM (inactive) | 61.7 µM (inactive) | 18.5 µM (inactive) | > 100 µM (inactive) | > 100 µM (inactive) | > 100 µM (inactive) | 36.6 µM (inactive) | > 100 µM (inactive) | 16.9 µM (inactive) | – | –
COc1cc(/C=C2\C(=O)N(C(=O)c3ccc(NC(C)=O)cc3)N=C2C)ccc1O | > 100 µM (inactive) | > 100 µM (inactive) | > 100 µM (inactive) | > 100 µM (inactive) | > 100 µM (inactive) | > 100 µM (inactive) | – | > 100 µM (inactive) | > 100 µM (inactive) | > 100 µM (inactive) | > 100 µM (inactive) | > 100 µM (inactive) | > 100 µM (inactive) | > 100 µM (inactive) | > 100 µM (inactive) | > 100 µM (inactive) | –
CCc1ccccc1NC(=O)C1=C(C)NC(C)=C(C(=O)Nc2ccccc2CC)C1c1ccc(NC(C)=O)cc1 | 28.5 µM (inactive) | 28.1 µM (inactive) | 29.8 µM (inactive) | 49.1 µM (inactive) | 51.1 µM (inactive) | 26.5 µM (inactive) | 28.4 µM (inactive) | 41.2 µM (inactive) | 58.3 µM (inactive) | 43.1 µM (inactive) | 92.7 µM (inactive) | 35.2 µM (inactive) | 36.3 µM (inactive) | – | 20.8 µM (inactive) | 16.1 µM (inactive) | 17.4 µM (inactive)
CC(=O)NC1C(OCc2ccccc2)OC(COC(=O)CCCCCNc2ccc([N+](=O)[O-])c3[nH]c4ccc(O)cc4c(=O)c23)C(O)C1OC(C)C(=O)N[C@@H](C)C(=O)N[C@H](CCC(=O)OCc1ccccc1)C(N)=O (some centres undefined) | 17.3 µM (inactive) | 1.39 µM (inactive) | 6.59 µM (inactive) | 1.32 µM (inactive) | 1.26 µM (inactive) | 1.8 µM (inactive) | 7.24 µM (inactive) | 0.465 µM (active) | 1.55 µM (inactive) | 1.56 µM (inactive) | 3 µM (inactive) | 0.321 µM (active) | 2.45 µM (inactive) | 0.522 µM (active) | 1.6 µM (inactive) | 2.39 µM (inactive) | 1.6 µM (inactive)
CC(C)(Oc1ccc(/C=C/C(=O)c2ccccc2)cc1)C(=O)Nc1c(Cl)cccc1Cl | > 10 µM (inactive) | 4.07 µM (inactive) | > 10 µM (inactive) | > 10 µM (inactive) | > 10 µM (inactive) | > 10 µM (inactive) | > 10 µM (inactive) | 7.08 µM (inactive) | > 10 µM (inactive) | > 10 µM (inactive) | > 10 µM (inactive) | > 10 µM (inactive) | > 10 µM (inactive) | 3.48 µM (inactive) | 4.67 µM (inactive) | > 10 µM (inactive) | > 10 µM (inactive)
Cc1nc(Nc2ccc(Cl)cc2)sc1C(=O)NNC(=O)C(=O)NN | 26.4 µM (inactive) | 18.3 µM (inactive) | 16.1 µM (inactive) | 21.9 µM (inactive) | 21 µM (inactive) | 18.5 µM (inactive) | 19.1 µM (inactive) | 18 µM (inactive) | 20.3 µM (inactive) | 23.3 µM (inactive) | 21.3 µM (inactive) | 19.6 µM (inactive) | 25.1 µM (inactive) | 27.5 µM (inactive) | 17.2 µM (inactive) | 17.6 µM (inactive) | 24.9 µM (inactive)
COc1cc(/C=C/C(=O)c2cccc3ccccc23)cc(OC)c1OC | 12 µM (inactive) | 4.06 µM (inactive) | 3.39 µM (inactive) | 11.4 µM (inactive) | 8.18 µM (inactive) | 3.85 µM (inactive) | 15.4 µM (inactive) | 2.75 µM (inactive) | – | 7.5 µM (inactive) | 13.4 µM (inactive) | 3.82 µM (inactive) | 6.37 µM (inactive) | 3.13 µM (inactive) | 4.68 µM (inactive) | 3.03 µM (inactive) | 2.33 µM (inactive)
c1ccc(-c2nnc(-c3nn(-c4ccccc4)c4nc5ccccc5nc34)o2)cc1 | 92.3 µM (inactive) | > 100 µM (inactive) | > 100 µM (inactive) | 45.5 µM (inactive) | > 100 µM (inactive) | 25.1 µM (inactive) | > 100 µM (inactive) | 92.3 µM (inactive) | 93.8 µM (inactive) | > 100 µM (inactive) | > 100 µM (inactive) | 34.8 µM (inactive) | 64.3 µM (inactive) | – | 44.9 µM (inactive) | > 100 µM (inactive) | 4.3 µM (inactive)

Reference: ChEMBL document CHEMBL1201862, “PubChem BioAssay data set” (2004)
